Assay results published in patent publication US7256201B2, “Selective estrogen receptor-β ligands” (AstraZeneca AB, priority 2000, dated 2007).

Tests used:
αER = target: T1, αER (Homo sapiens, UniProt P03372); experiment: Cell-based assay for ER transcriptional activity (ERE β-gal reporter), αER-transfected 293 cells; details: 293 cells transfected with αER and ERE reporter; for ERE α-ER Max: maximal response, unit assumed; for EC50: read-out: ERE α-ER EC50
T1 construct: expressed in transfected cells; host or cells: 293 cells (Human Embryonic Kidney, ATCC CRL-1573)
T1 sequence (P03372 1-595): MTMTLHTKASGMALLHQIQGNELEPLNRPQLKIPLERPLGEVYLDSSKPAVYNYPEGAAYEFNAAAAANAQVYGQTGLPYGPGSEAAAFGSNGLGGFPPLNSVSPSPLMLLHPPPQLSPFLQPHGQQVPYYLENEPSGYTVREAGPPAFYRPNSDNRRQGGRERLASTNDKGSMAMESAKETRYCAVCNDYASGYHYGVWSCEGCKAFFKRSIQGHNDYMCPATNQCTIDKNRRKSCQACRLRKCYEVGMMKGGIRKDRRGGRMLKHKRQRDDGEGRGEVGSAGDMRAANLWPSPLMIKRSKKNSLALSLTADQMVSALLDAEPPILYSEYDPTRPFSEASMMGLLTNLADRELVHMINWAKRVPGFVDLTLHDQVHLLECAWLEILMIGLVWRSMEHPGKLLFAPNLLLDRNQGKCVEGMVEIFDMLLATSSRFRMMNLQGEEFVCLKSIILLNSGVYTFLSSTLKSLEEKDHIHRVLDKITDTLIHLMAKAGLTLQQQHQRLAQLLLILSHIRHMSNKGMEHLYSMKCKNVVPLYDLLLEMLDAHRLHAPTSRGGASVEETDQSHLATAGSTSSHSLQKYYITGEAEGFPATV
Procedure: (§1) ERs are ligand-dependent transcription factors that bind the promoter regions of genes at a consensus DNA sequence called the estrogen responsive element (ERE). The ER agonist or antagonist activity of a drug was determined by measuring the amount of reporter enzyme activity expressed from a plasmid under the control of an estrogen-responsive element when cells transiently transfected with ER and the reporter plasmid were exposed to drug. These experiments were conducted according to the following methods.
(§2) Estrogen Receptors alpha (αER, Gen Bank accession #M12674), and beta (βER, Gen Bank #X99101 were cloned into the expression vector pSG5 (Stratagene). A trimer of the vitellogenin-gene estrogen response element (vitERE) was synthesized as an oligonucleotide and attached to a beta-globin basal promoter in a construct named pERE3 gal. This response element and promoter were removed from pERE3 gal by digestion with the endonucleases SpeI (filled with Klenow fragment) and HindIII. This blunt/Hind III fragment was cloned into the β-galactosidase (β-gal) enhancer reporter plasmid (pBGALenh, Stratagene). αER and βER plasmids were purified using a the Endo Free Maxi Kit (Qiagen), and the DNA concentration and purity (A260/280 ratio) were determined spectrophotometrically (Pharmacia). Only DNA with A260/280 ratio of 1.8 and a concentration of >1 ug/uL was used for transfections.
(§3) All Transfections are performed in 293 cells (Human Embryonic Kidney cells ATCC #CRL-1573). Cells are grown in DMEM supplemented with 10% FBS, glutamine, sodium pyruvate and penicilin/streptomycin. Cells are grown to 70% confluency and split 1:4.
(§4) • 1. 293 cells are split the night before onto collagen I-coated 150 mm tissue-culture plates (Biocoat, Becton Dickinson #354551) at a density of 60-70% in DMEM Mediatech 17-205-CV) 10% charcoal-stripped FBS (biocell #6201-31). Approximately 1×10^7 cells/plate will yield 70% confluency. • 2. The next morning, 1 hour prior to transfection, the media is changed to fresh DMEM 10% FBS stripped and supplements. • 3. Transfections are performed using the Profection Kit (Promega #E1200). This kit is based on the calcium-phosphate-mediated transfection technique. Reagents are added in sterile polystyrene tubes in the following order:
(§5) Solution A • 15 μg αER or βER • 45 μg Reporter (pBGALenh or ERE3) • 1.5 mL Sterile Water • 186 μL CaCl2 • *Mix gently
(§6) Solution B • 1.5 mL 2× Hank's Buffered Salt Solution • 4. Using a vortex set on low, add solution A to solution B dropwise. The resulting solution should become milky in color. It is important to achieve thorough mixing. The solution is allowed to settle for 30 minutes, then vortexed before adding the solution to cells. • 5. Add the mixture to 150 mm plates dropwise. Mix well by rocking plates back and forth and side to side gently. After an hour, a very fine precipitate should be seen floating on and above cells under 20× magnification. If this precipitate is not observed, the transfection will not be effective. Incubate the cells for 12 hours. Receptor Stimulation: • 1. The day after transfection, cells are washed 2× with calcium- and magnesium-free Mg free PBS containing 1 mM EGTA (pH 7.6). Cells are trypsinized for 2 min with 3 mL of trypsin-EDTA. Trypsin is neutralized with DMEM 10% FCS. Cells are pelleted at 1000×g for 5 min. The cell pellet is then resuspended in 5 mL DMEM plus 2% phenol-red-free FCS supplemented with glutamine, pyruvate, and Penn/Strep. • 2. 50 μl of the resulting cell suspension is plated into each well of 96-well tissue culture dishes (Biocoat B&D #354407) using a multi-channel pipettor. The dishes have been previously loaded with 50 μL of DMSO-solubilized test compounds at twice the test concentration in DMEM. Data reported are either n=4 wells (single poke) and n=2 wells (9-point concentration-response curves). • 3. Cells are incubated overnight at 37° C. in the selected compounds. Reporter Assay: • 1. […]

human recombinant ERα = target: T2, human recombinant ERα (Homo sapiens, UniProt P03372); experiment: Fluorescence polarization estrogen receptor (ERFP) binding assay, ERα; details: competition with Fluormone ES2; IC50 converted to Ki by Kenakin formula; read-out: FP α-ER Ki
T2 construct: purchased PanVera (Madison, Wis.)
T2 sequence (P03372 1-595): T1 sequence (P03372 1-595)
Procedure: (§7) A homogeneous mix-and-measure estrogen receptor (ER) binding assay which utilizes fluorescence polarization (FP) technology is used to identify compounds with affinity for the estrogen receptor. Purchased from PanVera (Madison, Wis.), assay reagents include purified human recombinant ERα, human recombinant ERβ, ES2 screening buffer (100 mM potassium phosphate, pH 7.4, 100 μg/mL bovine gamma globulin), and Fluormone™ ES2.
(§8) For competition binding experiments, dilutions of test compounds are prepared at 2× the final assay concentration in 0.2% DMSO in ES2 Screening buffer on TECAN Genosys, and 25 μL compound/well is dispensed into black Costar ½ volume 96-well plates. Dependent upon a lot specific Kd determination, 10-40 nM ERα or 10-40 nM ERβ and 1 nM Fluormone ES2 are then added to these plates in a final assay volume of 50 μL/well. Plates are gently shaken for at least 5 minutes to mix and incubated for at least 1 hr 45 minutes to achieve equilibrium. (Reaction mixtures are stable for up to 5 hours). After centrifugation to remove air bubbles, plates are read on an LJL Analyst or Acquest equipped with Criterion software at the following settings: Fluorescence Polarization Mode; Static Polarizer on Excitation Side; Dynamic Polarizer on Emission Side; Excitation λ=485×/−5 10 nm; Emission λ=520+/−12.5 nm.
(§9) Polarized fluorescence intensity values are collected and subsequently converted electronically to millipolarization (mp) values. Following data reduction and normalization with Excel and/or Prism software, % Ctrl values at the various test concentrations are used to obtain IC50 values via non-linear regression analysis of a four-parameter logistic equation.
(§10) Because ligand depletion is a consideration in this assay (˜40-60% input ES2 is bound in the assay), IC50 values are converted to Ki values through application of the Kenakin formula, as outlined in the reference below, rather than via the more routinely-used Cheng-Prusoff formula.

human recombinant ERβ = target: T3, human recombinant ERβ (Homo sapiens, UniProt Q92731); experiment: Fluorescence polarization estrogen receptor (ERFP) binding assay, ERβ; details: for Ki: competition with Fluormone ES2, IC50 converted to Ki by Kenakin formula, read-out: FP β-ER Ki; for FP Selectivity: ratio α-ER Ki / β-ER Ki
T3 construct: purchased PanVera (Madison, Wis.)
Procedure: as §7, §8, §9, §10

βER = target: T4, βER (Homo sapiens, UniProt Q92731); experiment: Cell-based assay for ER transcriptional activity (ERE β-gal reporter), βER-transfected 293 cells; details: for EC50 / ERE β-ER Max: 293 cells transfected with βER and ERE reporter; for ERE β-ER Max: maximal response, unit assumed; for ERE Selectivity: ratio α-ER EC50 / β-ER EC50
T4 construct: expressed in transfected cells; host or cells: 293 cells (Human Embryonic Kidney, ATCC CRL-1573)
Procedure: as §1, §2, §3, §4, §5, §6

T4 sequence (Q92731 54-530 limits assumed): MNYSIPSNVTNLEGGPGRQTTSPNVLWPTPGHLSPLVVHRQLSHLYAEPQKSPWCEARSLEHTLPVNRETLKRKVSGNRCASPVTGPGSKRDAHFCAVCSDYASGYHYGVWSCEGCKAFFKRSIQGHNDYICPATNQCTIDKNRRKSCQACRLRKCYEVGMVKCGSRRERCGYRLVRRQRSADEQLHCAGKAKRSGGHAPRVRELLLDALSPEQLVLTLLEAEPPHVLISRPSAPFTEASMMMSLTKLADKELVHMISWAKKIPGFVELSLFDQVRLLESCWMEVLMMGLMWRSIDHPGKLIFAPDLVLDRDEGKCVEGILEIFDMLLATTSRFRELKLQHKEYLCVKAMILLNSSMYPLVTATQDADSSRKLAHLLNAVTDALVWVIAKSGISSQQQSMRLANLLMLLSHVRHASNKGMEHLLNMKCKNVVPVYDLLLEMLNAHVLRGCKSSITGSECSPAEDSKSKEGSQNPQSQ
T3 sequence (Q92731 whole entry): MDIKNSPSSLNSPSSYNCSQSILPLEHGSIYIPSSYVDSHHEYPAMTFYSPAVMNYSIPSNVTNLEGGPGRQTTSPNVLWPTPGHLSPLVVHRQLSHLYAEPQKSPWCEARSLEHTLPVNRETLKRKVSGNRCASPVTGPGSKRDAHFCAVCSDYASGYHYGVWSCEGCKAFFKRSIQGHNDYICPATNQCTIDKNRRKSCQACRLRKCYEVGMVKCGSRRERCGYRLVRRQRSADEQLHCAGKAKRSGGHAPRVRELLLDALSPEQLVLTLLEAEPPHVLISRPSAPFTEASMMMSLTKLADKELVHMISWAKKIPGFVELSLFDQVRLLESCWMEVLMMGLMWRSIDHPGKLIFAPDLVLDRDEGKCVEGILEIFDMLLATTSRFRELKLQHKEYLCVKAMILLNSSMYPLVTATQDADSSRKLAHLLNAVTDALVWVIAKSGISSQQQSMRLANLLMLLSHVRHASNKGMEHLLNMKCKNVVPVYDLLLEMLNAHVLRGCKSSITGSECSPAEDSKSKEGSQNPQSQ

ERE α-ER Max (αER) [%] | EC50 (αER) [nM] | Ki (human recombinant ERα) [nM] | Ki (human recombinant ERβ) [nM] | FP Selectivity (human recombinant ERβ) | EC50 (βER) [nM] | ERE β-ER Max (βER) [%] | ERE Selectivity (βER) | Compound
54 | 6.8 | 170 | 190 | 0.9 | 34 | 90 | 0.2 | 6-Hydroxy-2-(4-hydroxyphenyl)-1-phenylisoindoline and 5-hydroxy-2-(4-hydroxyphenyl)-1-phenylisoindoline [Example 27]
 |  | 1000 | 375 | 2.7 |  |  |  | Oc1ccc(N2CCc3cc(O)ccc3C2)cc1 [Example 1, 2-(4-Hydroxyphenyl)-1,2,3,4-tetrahydroisoquinoline-6-ol]
 |  | 48 | 18 | 2.7 |  |  |  | Oc1ccc(N2CCc3cc(O)ccc3C2)c(Cl)c1 [Example 2, 2-(2-Chloro-4hydroxyphenyl)-1,2,3,4-tetrahydroisoquinoline-6-ol]
93 | 28.2 | 60 | 8 | 7.4 | 35.7 | 103 | 0.8 | Cc1cc(O)ccc1N1CCc2cc(O)ccc2C1 [Example 3, 2-(4-Hydroxy-2-methylphenyl)-1,2,3,4-tetrahydroisoquinolin-6-ol]
 |  | 655 | 459 | 1.4 |  |  |  | COc1ccc([N+](=O)[O-])cc1N1CCc2cc(O)ccc2C1 [Example 4, 2-(2-Methoxy-5-nitrophenyl)-1,2,3,4-tetrahydroisoquinolin-6-ol]
 |  | 62 | 13 | 4.8 |  |  |  | O=[N+]([O-])c1cc(O)ccc1N1CCc2cc(O)ccc2C1 [Example 5, 2-(4-Hydroxy-2-nitrophenyl)-1,2,3,4-tetrahydroisoquinolin-6-ol]
100 | 0.6 | 10 | 10 | 0.9 | 7.6 | 105 | 0.1 | Oc1ccc(N2CCc3cc(O)ccc3C2c2ccccc2)cc1 (centres unmarked) [Example 6, 2-(4Hydroxyphenyl)-1-phenyl-1,2,3,4-tetrahydroisoquinolin-6-ol]
 |  | 62 | 35 | 1.8 |  |  |  | Cc1ccc(C2c3ccc(O)cc3CCN2c2ccc(O)cc2)c(C)c1 (centres unmarked) [Example 7, 1-(2,4-Dimethylphenyl)-2-(4-hydroxyphenyl)-1,2,3,4-tetrahydroisoquinolin-6-ol]
 |  | 18 | 39 | 0.5 |  |  |  | CSc1ccc(C2c3ccc(O)cc3CCN2c2ccc(O)cc2)cc1 (centres unmarked) [Example 8, 2-(4-Hydroxyphenyl)-1-(4-methylsulfanylphenyl)-1,2,3,4-tetrahydroisoquinolin-6-ol]
 |  | 8 | 4.9 | 1.6 |  |  |  | Oc1ccc(N2CCc3cc(O)ccc3C2c2ccc(C(F)(F)F)cc2)cc1 (centres unmarked) [Example 9, 2-(4-Hydroxyphenyl)-1-(4-trifluoromethylphenyl)-1,2,3,4-tetrahydroisoquinolin-6-ol]
95 |  | 11 | 7 | 1.6 |  | 44 |  | Oc1ccc(N2CCc3cc(O)ccc3C2c2ccc(Cl)cc2Cl)cc1 (centres unmarked) [Example 10, 1-(2,4-Dichlorophenyl)-2-(4-hydroxyphenyl)-1,2,3,4-tetrahydroisoquinolin-6-ol]
 |  | 10 | 9 | 1.1 |  |  |  | CCc1ccc(C2c3ccc(O)cc3CCN2c2ccc(O)cc2)cc1 (centres unmarked) [Example 11, 1-(4-Ethylphenyl)-2-(4-hydroxyphenyl)-1,2,3,4-tetrahydroisoquinolin-6-ol]
 |  | 15 | 18 | 0.8 |  |  |  | Oc1ccc(N2CCc3cc(O)ccc3C2Cc2ccccc2)cc1 (centres unmarked) [Example 16, 1-Benzyl-2-(4-hydroxy-phenyl)-1,2,3,4-tetrahydro-isoquinolin-6-ol]
 |  | 12 | 3.5 | 3.5 |  |  |  | Cc1ccc(N2CCc3cc(O)ccc3C2c2cccs2)cc1O (centres unmarked) [Example 22, 2-(3-Hydroxy-4-methyl-phenyl)-1-thiophen-2-yl-1,2,3,4-tetrahydro-isoquinolin-6-ol]
 |  | 660 | 229 | 2.9 |  |  |  | O=C(c1ccc(O)cc1)N1CCc2cc(O)ccc2C1 [Example 23, (6-Hydroxy-3,4-dihydro-1H-isoquinolin-2-yl)-(4-hydroxy-phenyl)-methanone]
 |  | 660 | 215 | 3.1 |  |  |  | O=C(c1ccc(O)cc1)N1CCc2ccc(O)cc2C1 [Example 24, (7-Hydroxy-3,4-dihydro-1H-isoquinolin-2-yl)-(4-hydroxy-phenyl)-methanone]
